In test [1] the test system is alveolar epithelial cells (MLE-12 and primary AEC). Description: TGF-beta and IL-6/sIL-6R-alpha induced EMT of alveolar epithelial cells. Format: cell-based. The procedure:
(§1) The role of STAT3 in EMT and myofibroblast differentiation was determined by using […]-9 in tissue culture experiments with alveolar epithelial cells (AEC; MLE-12 and primary AEC) and murine lung fibroblasts. […] […]-9 prevented TGF-beta and IL-6/sIL-6R-alpha induced EMT of AEC assessed by Col1a, alpha-SMA, Twist, and Snail mRNA levels and reduced myofibroblast differentiation as assessed by Col1a and alpha-SMA mRNA levels.

In a further test the test system is skin fibrosis. In words: Subcutaneous bleomycin mouse model of skin fibrosis. Format: in vivo. The note with it: intraperitoneal treatment days 14-28 of the 4 week model. The protocol: FIG. 20 illustrates an exemplary study design using a subcutaneous (SQ) bleomycin model for skin fibrosis. In a basic model, bleomycin is administered to wild type mice (C57/Bl6) via subcutaneous injection 5 days a week for a total of 4 weeks. PBS is used as a control for the bleomycin. Fibrosis is assessed in the biopsied skin on day 28. Fibrosis is assessed using histology (hematoxylin and eosin stain), where the dermal thickness is quantified as the average linear distance from the dermis-epidermis junction to the subQ muscle layer. Masson's trichrome staining is also performed to stain collagen blue. Immunohistochemistry is performed for alpha-smooth muscle actin, the marker of the myofibroblasts (cell that makes collagen during the process of fibrosis). Future endpoints are assessed including collagen content. To illustrate that STAT3 inhibitor is a useful therapy at least for dermal fibrosis, an example of a STAT3 inhibitor (C188-9) was given via the intraperitoneal route daily, starting in week 3 of the bleomycin model. DMSO was used as a control for the STAT3 inhibitor.

The test system of the next test is murine lung fibroblasts. In words: Myofibroblast differentiation of lung fibroblasts. Format: cell-based. The procedure: as §1

As to `COc1ccc(S(=O)(=O)Nc2cc(-c3c(O)ccc4ccccc34)c(O)c3ccccc23)cc1` [C188-9, N-(1′,2-dihydroxy-1,2′-binaphthalen-4′-yl)-4-methoxybenzenesulfonamide], the “TGF-beta and IL-6/sIL-6R-alpha induced EMT of AEC (Col1a, alpha-SMA, Twist, Snail mRNA levels)” value in test [1] is given as “prevented”. Also, in the test on skin fibrosis, the “bleomycin-induced increase of dermal fibrotic gene expression (Acta2, Col1a1, Col1a2 transcripts), RT-PCR” value was “blunted”. For the same molecule, the “myofibroblast differentiation (Col1a and alpha-SMA mRNA levels)” value in the test with murine lung fibroblasts is on record as “reduced”.

The values above are taken from US10112933B2, “Methods and compositions for treatment of fibrosis” (Baylor College of Medicine, priority 2013, dated 2018).
